Legend:
[1] = system: carrageenan-induced footpad edema; test: quantitative rat carrageenan footpad assay with 125I-HSA; assay type: in vivo; conditions: given 30 minutes prior to carrageenan; aspirin orally 200 mg per kilogram, MAIF intraperitoneally, all dosages
Protocol: Peak I from the G-10 column, supplied by Stolle Milk Biologics International, was prepared according to the methods described in U.S. Pat. No. 4,956,349. Lactose, obtained from commercial sources, was used as placebo. Aspirin was used as a positive control. Aspirin was dissolved in water and given orally by gastric gavage at the ratio of 200 mg per kilogram, a dose known to be active in the assay. […] The footpad assay was modified by using isotopically labeled human serum albumin (^125I-HSA) that localizes in the carrageenan-induced lesion in direct proportion to the volume of the exudate. By determining the total radioactive count in the footpad and comparing this to the counts in a known volume of plasma from the injected animal, a direct measurement of edema in microliters of plasma equivalents is obtained. ^125I-HSA was injected intravenously at a dose of 1.0 microcurie per rat. Female Dark Agouti rats were used. […]
To conduct the carrageenan footpad assay, 0.1 ml of 2% carrageenan was injected subcutaneously into each hind foot pad of an anesthetized rat. […] Both hind feet were then removed and the levels of radioactivity in each foot and in the 200 μl plasma standard were measured in an automated gamma counter. From these measurements the volume of edema in each foot was calculated and expressed in microliters.

[2] = system: neutrophil migration into the pleural cavity; test: pleural neutrophil migration inhibition assay; assay type: in vivo, rat; conditions: for dose range of activity in the neutrophil assay: compared together with Peak 12
Protocol: Neutrophil Migration Inhibition Assay. MAIF anti-inflammatory activity was determined in a pleural neutrophil migration inhibition assay. Female, white laboratory rats weighing 120 to 150 g were injected intrapleurally with 1.0 ml of 1% kappa carrageenin in PBS to induce neutrophil migration into the pleural cavity. Immediately, the rats were injected intraperitoneally with 0.5 ml doses of […] samples in PBS. PBS was used as a control. After four hours, the rats were sacrificed, pleural exudates were collected, and the emigrated neutrophils were counted.

[3] = system: circulating neutrophils and lymphocytes; test: effect on circulating leucocytes; assay type: in vivo, rat; conditions: other anti-inflammatory/immunomodulatory agents
Protocol: Two experiments were done. In the first, the MAIF preparation was administered intravenously at a dose of 40 mg/rat to one group of 6 animals and a control group was injected with saline. Blood samples were obtained at baseline, 1, 4, and 24 hours after treatment.
A further dose-response study was carried out in which a group of rats were injected intravenously with saline, 5, 10 or 20 mg of the MAIF preparation. Blood from each rat had been taken 7 days previously to provide baseline values and was taken again 4 hours after the injection of MAIF. Included on the graph are the results obtained from the sample taken 4 hours after the administration of 40 mg the MAIF preparation (see FIG. 31).

Compound | dose range of activity in the neutrophil assay [2] | effect on circulating leucocytes in the rat [3] | also measured
CC(=O)Oc1ccccc1C(=O)O [aspirin] | active in the high microgram to milligram range |  | footpad edema [1]: inhibited
O=P1(N(CCCl)CCCl)NCCCO1 (stereo not drawn) [cyclophosphamide] |  | depletes both circulating lymphocytes and neutrophils | 
COc1ccc2c(c1)c(CC(=O)O)c(C)n2C(=O)c1ccc(Cl)cc1 [indomethacin] | active in the high microgram to milligram range |  | 
O=C(O)c1cc(=O)[nH]c(=O)[nH]1 [orotic acid] |  |  | inhibitory activity on the migration of rat neutrophils ([2]; in the doses tested): Neither the sialic acid nor the orotic acid exhibited any inhibitory activity
cyclosporin A |  | causes an increase in the number of circulating neutrophils but lymphocyte numbers are either increased or not affected depending on the dose | 

Reference: patent US10716850B2, “Anti-inflammatory factor retentate, method of isolation, and use” (Wellin, Inc., priority 2014, dated 2020)
